Measured values: PubChem BioAssay AID214 (DTP/NCI, 2004)
Values joined by “and” are separate entries in the source; they are usually repeats but may differ in a detail not shown here. Identical values can stand only once. Inconclusive results are not listed.

Tested on: B6C3F1 mice, colon carcinoma 38 s.c., T/C
Assay: NCI In Vivo Anticancer Drug Screen. Data for tumor model Colon Carcinoma 38 (subcutaneous) in B6C3F1 mice
Settings: endpoint: median tumor weight (est.), higher = larger tumour
Procedure: The antitumor activity of compounds was measured in mice bearing transplantable tumors. Survival or tumor size were measured and the results are expressed as the measurement made in the treated group (T) divided by the measurement made in the vehicle treated control group (C). The tumor model used in this assay is Colon Carcinoma 38 (subcutaneous) in B6C3F1 mice

[1] = dose: 12.5 mg/kg/injection, schedule: Q07DX002 (ip), vehicle: saline
[2] = dose: 25.0 mg/kg/injection, schedule: Q07DX002 (ip), vehicle: saline
[3] = dose: 50.0 mg/kg/injection, schedule: Q07DX002 (ip), vehicle: saline
[4] = dose: 100.0 mg/kg/injection, schedule: Q07DX002 (ip), vehicle: saline
[5] = dose: 50.0 mg/kg/injection, schedule: Q07DX002 (ip), vehicle: water
[6] = dose: 200.0 mg/kg/injection, schedule: Q07DX002 (ip), vehicle: saline
[7] = dose: 100.0 mg/kg/injection, schedule: Q07DX002 (ip), vehicle: Klucel (hydroxypropylcellulose) (HPC)
[8] = dose: 400.0 mg/kg/injection, schedule: Q07DX002 (ip), vehicle: saline
[9] = dose: 800.0 mg/kg/injection, schedule: Q07DX002 (ip), vehicle: saline
[10] = dose: 50.0 mg/kg/injection, schedule: Q07DX002 (ip), vehicle: Klucel (hydroxypropylcellulose) (HPC)
[11] = dose: 200.0 mg/kg/injection, schedule: Q07DX002 (ip), vehicle: Klucel (hydroxypropylcellulose) (HPC)

## CCC/C=C/C=C/C(=O)OC1/C(=C/C(=O)OC)CC2CC(C(C)O)OC(=O)CC(O)CC3CC(OC(C)=O)C(C)(C)C(O)(CC4C/C(=C/C(=O)OC)CC(/C=C/C(C)(C)C1(O)O2)O4)O3 (stereo unspecified)
dose: 37.5 micrograms/kg/injection, schedule: Q07DX002 (ip), vehicle: saline + alcohol
  T/C: 191 % of control
dose: 300.0 micrograms/kg/injection, schedule: Q07DX002 (ip), vehicle: saline + alcohol
  T/C: 74 % of control

## C(=N/NC1=NCCN1)/c1c2ccccc2c(/C=N\NC2=NCCN2)c2ccccc12
dose: 6.25 mg/kg/injection, schedule: Q07DX002 (ip), vehicle: saline
  T/C: 100 % of control
[1]
  T/C: 55 % of control
[2]
  T/C: 112 % of control
[3]
  T/C: 81 % of control
[4]
  T/C: 36 % of control

## CC1CC(C)CC(C)C(O)/C(C#N)=C/C=C/CC(C2CCCC2C(=O)O)OC(=O)CC(O)C(C)C1 (stereo unspecified)
dose: 4.0 mg/kg/injection, schedule: Q07DX002 (ip), vehicle: Klucel (hydroxypropylcellulose) (HPC)
  T/C: 83 % of control
dose: 8.0 mg/kg/injection, schedule: Q07DX002 (ip), vehicle: Klucel (hydroxypropylcellulose) (HPC)
  T/C: 81 % of control
dose: 16.0 mg/kg/injection, schedule: Q07DX002 (ip), vehicle: Klucel (hydroxypropylcellulose) (HPC)
  T/C: 108 % of control
dose: 32.0 mg/kg/injection, schedule: Q07DX002 (ip), vehicle: Klucel (hydroxypropylcellulose) (HPC)
  T/C: 115 % of control

## Cn1c(=O)[nH]c2nncnc2c1=O
dose: 12.5 mg/kg/injection, schedule: Q07DX002 (ip), vehicle: water
  T/C: 104 % of control and 112 % of control
[5]
  T/C: 117 % of control and 119 % of control
dose: 100.0 mg/kg/injection, schedule: Q07DX002 (ip), vehicle: water
  T/C: 120 % of control

## COc1cc(C)c(C2NC(=O)c3ccccc3N2)cc1C (stereo unspecified)
dose: 450.0 mg/kg/injection, schedule: Q07DX002 (ip), vehicle: Klucel (hydroxypropylcellulose) (HPC)
  T/C: 70 % of control
dose: 900.0 mg/kg/injection, schedule: Q07DX002 (ip), vehicle: Klucel (hydroxypropylcellulose) (HPC)
  T/C: 53 % of control
dose: 1800.0 mg/kg/injection, schedule: Q07DX002 (ip), vehicle: Klucel (hydroxypropylcellulose) (HPC)
  T/C: 115 % of control
dose: 3600.0 mg/kg/injection, schedule: Q07DX002 (ip), vehicle: Klucel (hydroxypropylcellulose) (HPC)
  T/C: 55 % of control

## CN(CCN(C)C(=O)CCOS(C)(=O)=O)C(=O)CCOS(C)(=O)=O
[1]
  T/C: 121 % of control
[2]
  T/C: 92 % of control
[3]
  T/C: 51 % of control
[4]
  T/C: 51 % of control
[6]
  T/C: 12 % of control

## NC(CCl)=NCC12CC3CC(CC(C3)C1)C2
dose: 12.5 mg/kg/injection, schedule: Q07DX002 (ip), vehicle: Klucel (hydroxypropylcellulose) (HPC)
  T/C: 110 % of control
[7]
  T/C: 94 % of control and 108 % of control

## S=P(N1CC1)(N1CC1)N1CC1
dose: 3.0 mg/kg/injection, schedule: Q07DX003 (ip), vehicle: saline
  T/C: 58 % of control
dose: 6.0 mg/kg/injection, schedule: Q07DX003 (ip), vehicle: saline
  T/C: 57 % of control
dose: 12.0 mg/kg/injection, schedule: Q07DX003 (ip), vehicle: saline
  T/C: 23 % of control

## COCCCNC1=C(C#N)C(=O)NC(c2cccc([N+](=O)[O-])c2)S1 (stereo unspecified)
dose: 225.0 mg/kg/injection, schedule: Q07DX002 (ip), vehicle: saline with Tween-80
  T/C: 172 % of control
dose: 450.0 mg/kg/injection, schedule: Q07DX002 (ip), vehicle: saline with Tween-80
  T/C: 171 % of control
dose: 900.0 mg/kg/injection, schedule: Q07DX002 (ip), vehicle: saline with Tween-80
  T/C: 159 % of control

## NC(=O)c1c[se]c(C2OC(CO)C(O)C2O)n1 (stereo unspecified)
[3]
  T/C: 90 % of control
[4]
  T/C: 87 % of control
[6]
  T/C: 84 % of control
[8]
  T/C: 92 % of control
[9]
  T/C: 56 % of control

## O=C(CCBr)N1CCN(C(=O)CCBr)CC1
dose: 40.0 mg/kg/injection, schedule: Q07DX002 (ip), vehicle: saline with Tween-80
  T/C: 81 % of control
dose: 80.0 mg/kg/injection, schedule: Q07DX002 (ip), vehicle: saline with Tween-80
  T/C: 20 % of control and 33 % of control
dose: 320.0 mg/kg/injection, schedule: Q07DX002 (ip), vehicle: saline with Tween-80
  T/C: 6 % of control

## NC(=O)C1=CC2C3C=CC2(O)C(=O)OC3O1 (stereo unspecified)
dose: 7.5 mg/kg/injection, schedule: Q07DX002 (ip), vehicle: Klucel (hydroxypropylcellulose) (HPC)
  T/C: 73 % of control
dose: 15.0 mg/kg/injection, schedule: Q07DX002 (ip), vehicle: Klucel (hydroxypropylcellulose) (HPC)
  T/C: 86 % of control
dose: 30.0 mg/kg/injection, schedule: Q07DX002 (ip), vehicle: Klucel (hydroxypropylcellulose) (HPC)
  T/C: 112 % of control

## Nc1nc(N)c2cc(S(=O)(=O)c3ccccc3)ccc2n1
dose: 50.0 mg/kg/injection, schedule: Q07DX002 (ip), vehicle: saline with Tween-80
  T/C: 62 % of control
dose: 100.0 mg/kg/injection, schedule: Q07DX002 (ip), vehicle: saline with Tween-80
  T/C: 45 % of control
dose: 200.0 mg/kg/injection, schedule: Q07DX002 (ip), vehicle: saline with Tween-80
  T/C: 44 % of control
dose: 400.0 mg/kg/injection, schedule: Q07DX002 (ip), vehicle: saline with Tween-80
  T/C: 24 % of control

## O=C1N[C@H]2[C@H](O)[C@H](O)[C@@H](O)[C@H](O)[C@@H]2c2cc3c(c(O)c21)OCO3
dose: 0.88 mg/kg/injection, schedule: Q01DX008 (ip), vehicle: saline + alcohol
  T/C: 113 % of control
dose: 1.75 mg/kg/injection, schedule: Q01DX008 (ip), vehicle: saline + alcohol
  T/C: 105 % of control
dose: 3.5 mg/kg/injection, schedule: Q01DX008 (ip), vehicle: saline + alcohol
  T/C: 88 % of control

## Cc1ccoc1
dose: 16.8 mg/kg/injection, schedule: Q03HX006 (ip), vehicle: saline with Tween-80
  T/C: 75 % of control
dose: 33.33 mg/kg/injection, schedule: Q03HX006 (ip), vehicle: saline with Tween-80
  T/C: 109 % of control
dose: 66.66 mg/kg/injection, schedule: Q03HX006 (ip), vehicle: saline with Tween-80
  T/C: 114 % of control
dose: 133.33 mg/kg/injection, schedule: Q03HX006 (ip), vehicle: saline with Tween-80
  T/C: 108 % of control

## COc1ccc(OC)c(Cc2cnc3nc(N)nc(N)c3c2C)c1
dose: 25.0 mg/kg/injection, schedule: Q07DX002 (ip), vehicle: water
  T/C: 72 % of control
[5]
  T/C: 104 % of control

## NC(Cn1ccc(=O)c(O)c1)C(=O)O (stereo unspecified)
[4]
  T/C: 97 % of control
[8]
  T/C: 54 % of control
[9]
  T/C: 156 % of control

## O=C(O)Cc1cccc2c(=O)c(-c3ccccc3)coc12
[4]
  T/C: 177 % of control
[6]
  T/C: 76 % of control
[8]
  T/C: 121 % of control

## Cc1cc(Nc2ccc3c(c2)OCO3)c2cc3c(cc2n1)OCO3
[10]
  T/C: 78 % of control and 103 % of control
[7]
  T/C: 96 % of control and 113 % of control and 115 % of control

## CCC1=C2C(=O)c3ccccc3C2=C(C)S(=O)(=O)O1
dose: 6.25 mg/kg/injection, schedule: Q07DX002 (ip), vehicle: saline with Tween-80
  T/C: 153 % of control

## COc1nc(C(Cl)(Cl)Cl)c(Cl)c(OC)c1Cl
[10]
  T/C: 103 % of control
[7]
  T/C: 109 % of control
[11]
  T/C: 104 % of control
dose: 400.0 mg/kg/injection, schedule: Q07DX002 (ip), vehicle: Klucel (hydroxypropylcellulose) (HPC)
  T/C: 47 % of control

## CSc1ncnc2c1ncn2C1OC(CO)C(O)C1O (stereo unspecified)
dose: 25.0 mg/kg/injection, schedule: Q07DX002 (ip), vehicle: saline + alcohol
  T/C: 98 % of control
dose: 50.0 mg/kg/injection, schedule: Q07DX002 (ip), vehicle: saline + alcohol
  T/C: 51 % of control
dose: 100.0 mg/kg/injection, schedule: Q07DX002 (ip), vehicle: saline + alcohol
  T/C: 49 % of control
dose: 200.0 mg/kg/injection, schedule: Q07DX002 (ip), vehicle: saline + alcohol
  T/C: 32 % of control

## CCCCCNc1ncnc2c(C)[nH]nc12
[10]
  T/C: 123 % of control
[7]
  T/C: 102 % of control
[11]
  T/C: 77 % of control

## O=C(O)Cc1cccc2c(=O)c(-c3ccccc3)c(-c3ccccc3)oc12
[7]
  T/C: 11 % of control
